Assay results: US20060084697A1, “Pi3k antagonists as radiosensitizers” (priority 2002, published 2006)

Experiments:
[1] = system: Akt; assay: Western immunoblot of radiation-induced Akt phosphorylation in endothelial cells; format: cell-based; settings: for radiation-induced activation of Akt: irradiated vascular endothelium, summary statement
Description: Broad spectrum RTK inhibitors were tested for their abilities to attenuate radiation-induced phosphorylation of Akt. SU6668, a tyrosine kinase inhibitor of VEGFR, PDGFR, FGFR, and c-Kit, was added to endothelial cells prior to irradiation. Western immunoblots using phospho-specific antibodies to phosphorylated Akt (P-Akt) were prepared.
(§1) The role of RTKs in radiation-induced activation of the Akt signaling pathway was examined by studying a panel of tyrosine kinase inhibitors including PDGF receptor antagonists in primary culture endothelial cells. PDGF receptor antagonists including SU6668, SU11248, and STI571, attenuated radiation-induced phosphorylation of both Akt and Erk. […] Similar efficacy in blocking Erk1/2 phosphorylation in irradiated endothelial cells was found.

[2] = system: Akt; assay: Western blot of radiation-induced Akt phosphorylation in HUVEC; format: cell-based, human
Description: HUVEC cells were obtained from Clonetics and were maintained in EBM-2 medium supplemented with EGM™-2MV SINGLEQUOTS® (Bio-Whittaker, Inc., Walkersville, Md., United States of America). An Eldorado-8 Cobalt-60 teletherapy unit (Atomic Energy of Canada Limited, Mississauga, Ontario, Canada) was used to irradiate endothelial cell cultures at a dose rate of 0.84 Gy per minute. Delivered doses ranging from 0 to 12 Gy were verified by use of thermoluminescence detectors.
In order to determine if Akt is phosphorylated in response to irradiation, cultured HUVEC cells were serum starved for 4 hours, exposed to irradiation, and the phosphorylation of Akt was examined in cell extracts by Western blotting. Total cellular protein was extracted after radiation treatment as follows. Cells were counted and then washed with iced-cold PBS twice before the addition of lysis buffer (M-PER™ mammalian protein extraction reagent; Pierce Chemical Company, Rockford, Ill., United States of America; or 20 mM Tris, 150 mM NaCl, 1 mM EDTA, 1% Triton X-100, 2.5 mM sodium pyrophosphate, 1 mM phenylmethylsulphonyl fluoride (PMSF), and […] Leupeptin (Roche Molecular Biochemicals, Indianapolis, Ind., United States of America)). Protein concentrations were quantified using the Biorad method (Bradford, 1976). 50 μg protein was loaded into each well of an 8% sodium dodecyl […]-polyacrylamide gel electrophoresis (SDS-PAGE) gel and separated by electrophoresis. The proteins were subsequently transferred onto 0.45 μm nitrocellulose membranes. Membranes were blocked by incubation for 2 hours at room temperature in phosphate buffered saline-Triton (PBST: 0.9% NaCl, 0.3% Triton X-100, pH 7.4) containing 10% nonfat dry milk.
The presence of Akt protein on the membrane was determined as follows. The membranes were incubated with a 1:1000 dilution of rabbit antibody directed against either phosphorylated (Ser473) or non-phosphorylated human Akt overnight at 4° C. Rabbit antibodies were obtained from Cell Signaling Technology, Beverly, Mass., United States of America. The blots were then washed with PBST to remove unbound rabbit antibodies. The washed blots were then incubated for 1 hour at room temperature with a donkey anti-rabbit IgG secondary antibody (Amersham Biosciences, Piscataway, N.J., United States of America) diluted 1:1000 in PBST. The blots were again washed with PBST to remove unbound donkey antibodies. The presences of both phosphorylated and non-phosphorylated human Akt were determined by chemiluminescent detection of donkey anti-rabbit/rabbit anti-human Akt complexes using the ECL™ detection system (Amersham Biosciences) according to the manufacturer's protocol, followed by autoradiography. […]

[3] = system: Erk1/2; assay: Radiation-induced Erk phosphorylation in endothelial cells; format: cell-based; settings: for radiation-induced phosphorylation of Erk: primary culture endothelial cells (Example 16)
Description: Phosphorylation of MEK and Erk proteins was also investigated. Erk1/2 was activated following a single 3 Gy dose of irradiation. Erk was phosphorylated within 15 minutes, which resolved within 60 minutes. SU6668 is a broad spectrum inhibitor of split kinase domain RTKs, including Flk-1, Flt-1, PDGFR, fibroblast growth factor receptor (FGFR), and c-Kit (Mendel et al, 2003).
as §1

[4] = system: tumor endothelium; assay: TUNEL and vWF co-staining of tumor sections; format: in vivo
Description: To determine whether SU11248 interacts with radiation through the induction of apoptosis in tumor endothelium, TUNEL staining of tumor sections was utilized. Tumor sections were co-stained for the endothelial marker von Willebrand factor (vWF) and TUNEL.

[5] = system: tumor vasculature; assay: Intravital tumor vascular window, vascular length density, SU11248; format: in vivo, mice
Description: Growth factors produced by tumors could enhance the viability of tumor vascular endothelium. To determine whether SU11248 enhances radiation-induced destruction of tumor vasculature, SU11248 was administered to mice prior to irradiation with 3 Gy. Tumor vascular linear density was measured by use of intravital tumor vascular window. […] Five mice were treated in each of the treatment groups, and the vascular length density after treatment was quantified. Mean vascular length densities over four days are shown as a bar graph.

[6] = system: tumors; assay: Maintenance SU11248 after radiation, tumor growth delay; format: in vivo
Description: Upon the discontinuation of therapy, tumors rapidly regrow. To determine whether maintenance of SU11248 beyond the completion of radiation improved growth delay, this RTK inhibitor was administered twice daily continuously in groups treated with radiation alone or SU11248 and radiation. Beginning after day 8, three groups (drug alone, radiation+vehicle, and combined therapy) were maintained with twice daily intraperitoneal administrations of 20 mg/kg SU11248 for an additional 7 days. Maintenance treatment was discontinued after day 17, and subsequently resumed after four days of drug holiday.

[7] = system: HUVECs; assay: Apoptotic nuclei in HUVEC, SU11248 and 6 Gy; format: cell-based, human; settings: 24 hours
Description: To determine whether broad spectrum RTK inhibition enhances the cytotoxic effects of radiation on vascular endothelium, SU11248 was added 30 minutes prior to irradiation. HUVECs were treated with vehicle control, and either 100 nM SU11248 orvehicle combined with 6 Gy. […] Untreated control cells show 2% apoptotic nuclei as compared to 7 and 8% after treatment with SU11248 or radiation, respectively (p>0.1). […] To determine whether enhanced apoptotic response in endothelial cells treated with SU11248 results in reduced clonogenic cell survival, HUVEC were subcultured and colony formation was quantified.

[8] = system: LLC hind limb tumors; assay: Tumor growth delay, LLC hind limb tumors; format: in vivo, mice
Description: (§2) Destruction of tumor vasculature results in ischemia, which could reduce radiosensitivity of tumors. To determine whether SU11248 enhances tumor growth delay in irradiated tumors, mice bearing LLC and GL261 hind limb tumors were treated with intraperitoneal injection of 40 mg/kg SU11248 or control vehicle 30 minutes prior to each 3 Gy dose of radiation for a total of seven administrations. Both the inhibitor and radiation were discontinued after day 8. Time to doubling of LLC tumor size was 5, 6, 8 and 16 days for vehicle, SU11248, vehicle+21 Gy, and SU11248+21 Gy, respectively.

[9] = system: GL261 hind limb tumors; assay: Tumor growth delay, GL261 hind limb tumors, SU11248; format: in vivo, mice; settings: SU11248 prior to daily 3 Gy fractions, p<0.05
Description: as §2

[10] = system: tumors; assay: Power Doppler tumor blood flow, SU11248 and radiation; format: in vivo; settings: p<0.053
Description: To determine whether prolonged growth delay correlated with reduction in tumor blood flow, amplitude modulated Power Doppler was used to monitor blood flow. Reduced blood flow in tumors treated with SU11248 and radiation correlated with improved tumor growth delay.

[11] = system: HUVEC cells; assay: Clonogenic survival analysis of HUVEC; format: cell-based, human; settings: HUVEC treated with SU11248 prior to irradiation; p<0.05
Description: The ability of PI3K antagonist to suppress the clonogenic potential of HUVEC cells treated with radiation was assayed by clonogenic survival analysis. The ability of HUVEC cells treated with LY294002 30 minutes prior to irradiation to form colonies was compared to that of HUVEC cells treated with either radiation or LY294002 alone, and also to that of untreated HUVEC cells. […] Briefly, groups of three HUVEC culture plates were treated at each of four radiation dose levels: 2, 4, 6, and 8 Gy, either with or without prior treatment with PI3K antagonists as described in Example 2. After treatment with radiation and/or antagonists, cells were trypsinized, counted by hemocytometer, and subcultured into fresh medium. After 14 days, the cells were fixed with cold methanol and stained with 1% methylene blue. Colonies with greater than 50 cells were counted and the surviving fraction was determined.

[12] = system: PDGFRβ; assay: Phospho-PDGFRβ immunohistochemistry of GL261 tumors; format: in vivo, C57BL6 mice; settings: administered one hour prior to 3 Gy
Description: To determine to the level of phosphorylation of PDGF receptor, GL261 mouse tumor models were sectioned and stained. A phospho-specific antibody to PDGFRβ Tyr751 (Cell Signaling Technology, Beverly, Mass., United States of America) was used. Tumors produced by injecting GL261 murine glioma cells into the hind limb of C57BL6 mice were stained for phospho-PDGFRβ and visualized using immunohistochemistry. Phospho-PDGFRβ staining was graded as 2+ relative to staining in negative controls.
To determine whether cytotoxic therapy alters PDGFRβ phosphorylation, the tumor was irradiated (3 Gy) and snap frozen following irradiation. […] Positive staining for phosphorylated PDGFR was found in endothelium and tumor stroma.
Western immunoblots were performed to verify radiation induced an increase in phosphorylation of PDGFRβ. Protein extracted from irradiated HUVEC had increased phosphorylation of PDGFRβ.

[13] = system: HUVEC cells; assay: Apoptotic nuclei in HUVEC, H&E staining; format: cell-based, human; settings: wortmannin 4 nM or LY294002 2 μM, 24 hours
Description: To determine whether PI3K antagonists enhance the activities of intrinsic cell death mechanisms induced by irradiation, apoptosis in HUVEC cells was studied following PI3K inhibition. HUVEC cells were treated with wortmannin (4 nM) or with LY294002 (2 μM) as described in Example 2. Cells were treated 30 minutes later with 3 Gy of ionizing radiation. Cultures were stained 24 hours later with hematoxylin and eosin (H&E) to reveal apoptotic nuclei. Stained cells were then examined by light microscopy. For each treatment group, four high power fields (40× objective) were examined, and both the number of cells with apoptotic nuclei and the total number of cells were determined. From these numbers, the percentage of apoptotic cells for each group was calculated.

[14] = primary culture endothelial cells (Example 16)
[15] = added to endothelial cells prior to irradiation (Example 15)

In the case of `O=c1c(-c2ccc(O)cc2)coc2cc(O)cc(O)c12` [Genistein, 4′,5,7-trihydroxyisoflavone], the “radiation-induced activation of Akt” value [1] is reported as “attenuates”.
`CCCCCCCCCCCCCC(=O)N[C@H](C)[C@@H](O)c1ccccc1` [MAPP] was tested, and the “Akt phosphorylation in response to 3 Gy irradiation” value ([2]; antagonists added to HUVEC in culture (Example 18)) was “did not attenuate”.
`Cc1ccc(NC(=O)c2ccc(CN3CCN(C)CC3)cc2)cc1Nc1nccc(-c2cccnc2)n1` [STI571] was tested, and the “radiation-induced phosphorylation of Akt” value [1, 14] was “attenuated” and the “radiation-induced phosphorylation of Erk” value [3] was “attenuated”.
For `Cc1cc(C)c(/C=C2\C(=O)Nc3ccccc32)[nH]1` [SU5416], the “radiation-induced phosphorylation of Akt” value [1, 15] was “did not attenuate”.
`Cc1[nH]c(C=C2C(=O)Nc3ccccc32)c(C)c1CCC(=O)O` [SU6668, 3-[2,4-dimethyl-5-(2-oxo-1,2-dihydro-indol-3-ylidenemethyl)-1H-pyrrol-3-yl]-propionic acid] was tested, and the “radiation-induced phosphorylation of Akt” value [1, 15] was “blocked”, the “radiation-induced activation of Akt” value [1] was “attenuate” and the “radiation-induced phosphorylation of Akt” value [1, 14] was “attenuated”. For the same compound, the “Erk 1/2 phosphorylation” value ([3]; added 30 minutes prior to irradiation, 3 Gy, did not entirely eliminate activation) was “attenuated” and the “radiation-induced phosphorylation of Erk” value [3] was “attenuated”.
`CCN(CC)CCNC(=O)c1c(C)[nH]c(/C=C2\C(=O)Nc3ccc(F)cc32)c1C` [SU11248] was tested, and the “apoptotic cells in tumor sections” value ([4]; SU11248 alone) was “could not be detected”, the “apoptotic cells in tumor sections” value ([4]; radiation and SU11248, 24 hours following treatment, no apoptotic tumor cells) was “TUNEL positive endothelial cells” and the “radiation-induced activation of Akt” value [1] was “attenuate”. For the same compound, the “radiation-induced phosphorylation of Akt” value [1, 14] was “attenuated”, the “vascular length density, % of that at 0 hour” value ([5]; SU11248 alone) was 84% and the “vascular length density, % of that at 0 hours” value ([5]; SU11248 followed by 3 Gy, within 72 hours, p<0.01) was 8%. For the same compound, the “growth to 4-fold that of day 0 tumors” value ([6]; maintenance 20 mg/kg i.p. twice daily for 7 days after day 8, p<0.05 in all groups) was “significantly delays”, the “tumor growth after re-initiation of SU11248” value ([6]; re-initiation at day 21 after four days of drug holiday) was “second phase of tumor growth delay” and the “endothelial cells with apoptotic nuclei” value ([7]; 100 nM SU11248 30 minutes prior to 6 Gy) was 21%. For the same compound, the “endothelial cells with apoptotic nuclei” value ([7]; 100 nM SU11248 alone, untreated 2%) was 7%, the “time to doubling of LLC tumor size” value ([8]; 40 mg/kg i.p. 30 minutes prior to each 3 Gy dose, 21 Gy total, vehicle+21 Gy 8 days) was 16 days and the “time to doubling of LLC tumor size” value ([8]; 40 mg/kg i.p., seven administrations, no radiation, vehicle 5 days) was 6 days. For the same compound, the “tumor growth delay compared to either agent alone” value ([8]; LLC, SU11248 prior to daily 3 Gy fractions, p<0.05) was “significant increase”, the “tumor growth delay compared to either agent alone” value [9] was “significant increase” and the “radiation-induced phosphorylation of Erk” value [3] was “attenuated”. The “tumor blood flow compared to radiation alone” value [10] was “approached significant reduction”, the “clonogenic survival compared to radiation alone” value [11] was “significant reduction” and the “radiation-induced PDGFR phosphorylation” value [12] was “markedly attenuated”.
With `COC[C@H]1OC(=O)c2coc3c2[C@@]1(C)C1=C(C3=O)[C@@H]2CCC(=O)[C@@]2(C)C[C@H]1OC(C)=O` [wortmannin, Wortmannin] the “apoptotic nuclei, % of cells” value ([13]; HUVEC pretreated 30 minutes before 3 Gy) was 17%, the apoptotic cells ([13]; unirradiated HUVEC) was 3% and the “total Akt levels” value ([2]; HUVEC, wortmannin 4 nM or LY294002 2 μM) was “no effect”.
